The subject of data set [1] is tetrabenazine-induced depression (ptosis) in mice. Briefly: inhibition of tetrabenazine-induced depression (ptosis) in mice. To be noted: Mus musculus, read-out: ED50, 50% inhibition of the ptosis of the tetrabenazine-induced depression. It is filed as in vivo. An excerpt: Thus, for instance, the intraperitoneal dose at which the following compounds effect a 50% inhibition of the ptosis of the tetrabenazine-induced depression (ED50) in mice are: […]

In data set [2] the test system is supramaximal electro shock in mice. As to the kind of experiment: protection from supramaximal electro shock in mice (anticonvulsant). It is filed as in vivo. To be noted: Mus musculus, ip, intraperitoneal dose, read-out: ED50, approximately 50% protective from the effect of supramaximal electro shock. The source says: Compounds of the present invention are still further useful as anticonvulsant agents for mammals, as determined by the method of Woodbury, L. A. and Davenport, V. D., in Arch. Int. Pharmacodynam, Vol. 92. (1952) at pages 97 to 107. Thus, for instance, the following intraperitoneal doses at which an approximately 50% protective (ED50) from the effect of supramaximal electro shock in mice are: […]

The next data set has as its system tail flick in mice. As to the kind of experiment: modified D'Amour-Smith analgesia (tail flick) assay. It is filed as in vivo, male mice (Charles River: CD-1). To be noted: generally s.c. An excerpt:
Analgesic Activity Modified D'Amour-Smith Assay (Tail Flick)
Male mice (Charles River: CD-1) from 18-30 grams were used as test subjects. The mouse tails were individually placed on a "Vee" block and, subsequently, a painful stimulus was produced by an intense light beam (Emdie Instrument Co., Louisa, VA). The subject quickly responds to the noxious stimuli by flicking its tail. The reaction time, the interval between stimulus onset and response, was automatically measured in 1/10-second increments. Prior to drug administration, two control readings of reaction time were measured for each subject with approximately 15 minutes separating the tests. Subjects were discarded if their reaction times in these control tests varied by more than one second or if their inclusion in the study group caused the spread of reaction time to exceed three seconds.
The mean response time (x) and the standard deviation (SD) of the values were then calculated for each set of control scores. The formula presented below was used to calculate cut-off values (C.O.) for each set of control scores and the average of these C.O. values was used to determine evidence of analgesic activity in subsequent drug testing.
The C.O. value was actually a determination of a reaction time which exceeds the mean by two standard deviations. Any reaction time, in subsequent drug tests, which was greater than the C.O. value, therefore exceeds 95% of a normal Gaussian distribution and was called a "positive response" indicative of analgesic activity. Latency changes were calculated by subtracting the tail flick latency of the average control times from the latency after treatment for each mouse.
Compounds were tested in treatment groups of ten subjects and drugs, prepared in distilled water, were generally administered subcutaneously (s.c.) in volumes equivalent to 10 cc/kg. The initial testing was usually in the form of a time response at intervals of 15, 30, 45 and 60 minutes after dosing. If analgesic activity was still increasing at 60 minutes, then two additional groups were tested at 90 minute and 120 minute post dosing.
A time response indicated the period of greatest analgesic effect after dosing. Percent analgesic activity was calculated in the following manner: [formula] Grp.=Group Veh.=Vehicle
The ED50 was determined at the peak time of drug activity. A minimum of three dose groups were employed. Drugs were administered in a randomized manner. ED50 's were calculated using Litchfield-Wilcoxon (LITWL on PDP II) computer analysis.

Data set [3] relates to climbing behavior induced by apomorphine in mice. Briefly: apomorphine-induced climbing mice assay (neuroleptic activity). It is filed as in vivo, CD-1 male mice. The note with it: intraperitoneally 30 minutes prior to apomorphine 1.5 mg/kg s.c. How it is done: Central Nervous System Depressant (Neuroleptic) Activity Climbing Mice Assay
The subject CD-1 male mice (23-27 grams) were group-housed under standard laboratory conditions. The mice were individually placed in wire mesh stick cages (4"×4"×10") and were allowed one hour for adaptation and exploration of the new environment. Then apomorphine was injected subcutaneously at 1.5 mg/kg, a dose causing climbing in all subjects for 30 minutes. Compounds to be tested for neuroleptic activity were injected intraperitoneally 30 minutes prior to the apomorphine challenge at a screening dose of 10 mg/kg.
For evaluation of climbing, 3 readings were taken at 10, 20 and 30 minutes after apomorphine administration according to the following scale:
Mice consistently climbing before the injection of apomorphine were discarded.
With full-developed apomorphine climbing, the animals were hanging onto the cage walls, rather motionless, over longer periods of time. By contrast, climbs due to mere motor stimulation usually only lasted a few seconds.
The climbing scores were individually totaled (maximal score: 6 per mouse over 3 readings) and the total score of the control group (vehicle intraperitineally -- apomorphine subcutaneously) was set to 100%.

Data set [4] deals with phenyl-p-quinone writhing in mice. As to the kind of experiment: phenyl-p-quinone writhing assay in mice (analgesia). It counts as in vivo. The note with it: Mus musculus, sc, subcutaneous dose, read-out: ED50, approximately 50% inhibition of writhing. The source says: Compounds of the invention are further useful as analgesic agents due to their ability to alleviate pain in mammals. […] Exptl. Biol Med., 95 729 (1957)]. Thus for instance, the subcutaneous dose effecting an approximately 50% inhibition of writhing (ED50) in mice produced in this assay is as follows: […]
For orientation: An intraperitoneal irritant provokes the stretching counted in writhing tests.

The nature of data set [5]: stability study, gas chromatographic assay (acid stability). It counts as physicochemical. How it is done: Gas chromatographic conditions were established under which 2-fluoro-11-[β-(dimethylamino)ethoxy]dibenz[b,f]oxepin (as the hydrobromide or hydrochloride salts), 2-fluoro-11-[β-(dimethylamino)ethylthio]dibenz[b,f]oxepin (as the hydrobromide salt) and 10,11-dihydro-10-oxodibenz[b,f]oxepin were separated:
Column-Glass 2m×2mm ID packed with 3% OV-225 on 80/100 supelcoport
Temperature: Isothermal at 220° C.
Flow Rate: He at 45 ml/min
Instrument: Perkin-Elmer 3920B
Solutions of 2-fluoro-11-[β-(dimethylamino)ethoxy]dibenz[b,f]oxepin and 2-fluoro-11-[β-(dimethylamino)ethylthio]dibenz[b,f]oxepin were prepared in water at a concentration of 200 mg/100 ml. Portions of these stock aqueous solutions were used in each of the following experiments. All aqueous samples were prepared for gas chromotographic (GC) injection by first adding sodium carbonate solution to adjust the pH to 9 and then extracting with ethyl acetate. The ethyl acetate layer was separated and 2.0μ of it were injected.
II. Acidification of 2.0 ml of 2-fluoro-11-[β-(dimethylamino)ethoxy]dibenz[b,f]oxepin stock solution with 0.2 ml of concentrated hydrochloric acid and standing at ambient temperature produced increases in the levels of 10,11-dihydro-10-oxodibenz[b,f]oxepin beyond the 0.2% level initially contaminating the sample of 2-fluoro-11-[β-(dimethylamino)ethoxy]dibenz[b,f]oxepin.
III. Simultaneous experiments were performed using 2.0 ml of each stock solution of […] and 2-fluoro-11-[β-(dimethylamino)ethylthio]dibenz[b,f]oxepin in individual test tubes. Acidification of each solution with 0.2 ml of concentrated hydrochloric acid and side by side warming (not reflux) for 2 minutes (electric heat gun) produced a visible change.

The conditions of data set [6]: M. Protvia, et al. Il Farmaco XXI, 98 (1966); cited from earlier work.
The mark [7] stands for this setting: 0.2 ml concentrated hydrochloric acid, warming (not reflux) for 2 minutes.

Consider 14 compounds from US4837227A, “Aminoalkylthiodibenzoxepins and pharmaceutical use” (Hoechst-Roussel Pharmaceuticals, Inc., priority 1985, dated 1989).

Counter-ions that a name gives are not always drawn. Like-named read-outs stand apart in the source and are kept apart here.

On to `CN(C)CCSC1Cc2ccccc2Oc2ccc(Cl)cc21.O=C(O)C(=O)O` (stereo not drawn) [2-chloro-10,11-dihydro-11-[β-(dimethylamino)-ethylthio]-dibenz[b,f]oxepin oxalate], for which the 50% effective dose (ED50) in data set [1] (ip, intraperitoneal dose) amounted to 3.5 mg/kg; in data set [2] it was 19.4 mg/kg.
`CN(C)CCSC1=Cc2ccccc2Oc2ccc(Cl)cc21` [2-chloro-11-[β-(dimethylamino)ethylthio]dibenz[b,f]oxepin]: in the data set on tail flick in mice (dose 25 mg/kg), the “Analgesic Activity (%)” value amounted to 20%. Moreover, the “Activity (% Inhibition of Climbing)” value in data set [3] (10 mg/kg) is 5%.
Regarding `CN(C)CCSC1Cc2ccccc2Oc2ccc(F)cc21.O=C(O)C(=O)O` (stereo not drawn) [2-fluoro-10,11-dihydro-11-[β-(dimethylamino)ethylthio]dibenz[b,f]oxepin oxalate], the ED50 in data set [4] stood at 1.9 mg/kg; in data set [1] (oral dose (footnote *)) it was 7.6 mg/kg; in data set [2] it was 9 mg/kg.
Consider `CN(C)CCOC1=Cc2ccccc2Oc2ccc(F)cc21` [2-fluoro-11-[β-(dimethylamino)ethoxy]dibenz[b,f]oxepin], for which, in data set [5] (setting [7]), the “visible change of the acidified solution on warming” value is “became white and cloudy”. For the same compound, in data set [5] (25 ml stock + 2.5 ml concentrated hydrochloric acid, further reflux 10 mins, to 10,11-dihydro-10-oxodibenz[b,f]oxepin), the “decomposition on reflux after addition of concentrated hydrochloric acid” value is “complete decomposition”. In addition, the “decomposition on reflux of aqueous stock solution” value in data set [5] (water, 200 mg/100 ml, reflux, 45 minutes) is listed as “no apparent decomposition”. The degraded at 2 min in data set [5] (water, concentrated hcl, 0.2 ml concentrated hydrochloric acid, warming (not reflux) for 2 minutes, read-out: decomposed to 10,11-dihydro-10-oxodibenz[b,f]oxepin by GC analysis) turned out to be 87.2%; in data set [5] (water, concentrated hcl, 2 min, ambient temperature, 2.0 ml stock + 0.2 ml concentrated hydrochloric acid, product 10,11-dihydro-10-oxodibenz[b,f]oxepin, read-out: % Increase in decomposition product), 0.35%. In addition, the degraded at 1 h in data set [5] (water, concentrated hcl, 60 min, ambient temperature, 2.0 ml stock + 0.2 ml concentrated hydrochloric acid, product 10,11-dihydro-10-oxodibenz[b,f]oxepin, read-out: % Increase in decomposition product) worked out at 2.16%. Moreover, the degraded at 140 min in data set [5] (water, concentrated hcl, 140 min, ambient temperature, 2.0 ml stock + 0.2 ml concentrated hydrochloric acid, product 10,11-dihydro-10-oxodibenz[b,f]oxepin, read-out: % Increase in decomposition product) worked out at 3%.
`Br.CN(C)CCSC1=Cc2ccccc2Oc2ccc(F)cc21` [2-fluoro-11-[β-(dimethylamino)ethylthio]dibenz[b,f]oxepin hydrobromide]: the ED50 in data set [1] (ip, intraperitoneal dose) was determined as 4.3 mg/kg; in data set [2], 9.2 mg/kg.
For the compound `CN(C)CCSC1=Cc2ccccc2Oc2ccc(F)cc21` [2-fluoro-11-[β-(dimethylamino)ethylthio]dibenz[b,f]oxepin], the “Analgesic Activity (%)” value in the data set with tail flick in mice (dose 23.9 mg/kg) came out at 50%. Further, in data set [5] (setting [7]), the “decomposition by GC analysis (in words)” value is listed as “did not decompose”; the “visible change of the acidified solution on warming” value is “remained clear and colorless”. Also, the “Activity (% Inhibition of Climbing)” value in data set [3] (10 mg/kg) turned out to be 10%.
Turning to `CNCCSC1=Cc2ccccc2Oc2ccc(F)cc21.O=C(O)/C=C\C(=O)O` [2-fluoro-11-[β-(methylamino)ethylthio]dibenz[b,f]oxepin maleate], the ED50 in data set [4] is 2.3 mg/kg; in data set [1] (ip, intraperitoneal dose), 0.3 mg/kg; in data set [2], 9.9 mg/kg.
With `CNCCSC1=Cc2ccccc2Oc2ccc(F)cc21` [2-fluoro-11-[β-(methylamino)ethylthio]dibenz[b,f]oxepin], in the data set with tail flick in mice (dose 11.3 mg/kg), the “Analgesic Activity (%)” value is reported as 50%.
With `CN(C)CCSC1Cc2ccccc2Oc2ccccc21` (stereo not drawn) [10,11-dihydro-10-[β-(dimethylamino)ethylthio[dibenz[b,f]oxepin oxalate], the ED50 in data set [1] (ip, intraperitoneal dose) came out at 7 mg/kg; in data set [2], 7.7 mg/kg.
With `CNCCSC1=Cc2ccccc2Oc2ccccc21.O=C(O)C(=O)O` [10-[β(methylamino)ethylthio]dibenz[b,f]oxepin oxalate], the ED50 in data set [4] stood at 2.3 mg/kg; in data set [1] (ip, intraperitoneal dose) it was 3.4 mg/kg; in data set [2], 21 mg/kg.
Turning to `CN(C)CCSC1=Cc2ccccc2Oc2ccccc21` [10-[β-(dimethylamino)ethylthio]dibenz[b,f]oxepin], the “Analgesic Activity (%)” value with tail flick in mice (dose 25 mg/kg) was 30%. Also, the “Activity (% Inhibition of Climbing)” value in data set [3] (15 mg/kg) amounted to 20%.
Turning to `CNCCSC1=Cc2ccccc2Oc2ccccc21` [10-[β-(methylamino)ethylthio]dibenz[b,f]oxepin], the “Analgesic Activity (%)” value in the data set with tail flick in mice (dose 11.6 mg/kg) stood at 50%.
In the case of `CSc1ccc2c(c1)C(SCCN(C)C)=Cc1ccccc1O2` [11-[β-(dimethylamino)ethylthio]-2-(methylthio)dibenz[b,f]oxepin], the “Analgesic Activity (%)” value in the data set on tail flick in mice (dose 14.1 mg/kg) amounted to 50%. Moreover, in data set [3] (10 mg/kg), the “Activity (% Inhibition of Climbing)” value is listed as 18%.
In the case of `CN(C)CCOC1Cc2ccccc2Sc2ccc(Cl)cc21` (centres unmarked) [Amethoclothepine], in data set [6], the “central depressant activity (in words)” value was “central depressant activity”.

Broadly, the ED50 is the midpoint of the dose-response relation.
